Assays:
[1] = system: B16-F0 cells; assay: Western blot densitometry of whole-cell lysates, B16-F0; assay type: cell-based, mouse; conditions: 48 h
Protocol: (§1) B16-F0, F16-F10, and SK-MEL-24 cells were treated for 24 h with vehicle, 50 µM, and 100 µM 2HF. Cells were harvested and lysates prepared for Western blot using a radioimmunoprecipitation assay (RIPA) buffer with a protease (complete ULTRA) and phosphatase inhibitor (PhosSTOP) cocktail (Sigma-Aldrich, St. Louis, MO, USA). Total cell lysates (25 µg/lane) were loaded on 4–12% bis-tris gels, with MES gel running buffer. Proteins were transferred to nitrocellulose membrane, and nonspecific binding was minimized with 1× clear milk blocking buffer +0.1%TWEEN 20 (ThermoFisher Scientific, Waltham, MA, USA) for 1 h at room temperature. All primary antibodies were purchased from Santa Cruz Biotechnology except mouse monoclonal, TNF-α (Invitrogen), (1:1000), in 1× clear milk +0.1% TWEEN 20 overnight at 4 °C. Secondary antibody from Santa Cruz Biotech (1:2000) was incubated for 1 h at room temperature in 1× clear milk, 0.1% TWEEN 20.
(§2) Supplemental data for Fig. 2C. Caspase 9
(§3) Numbers below of each blot represent protein 1.0 1.2 0.5 ND ND ND ND ND ND band intensity ratios to adequate controls after Procaspase 3 […]
(§4) RAL BP- 1 and apoptosis enzymes in SK-Mel-24, B16F0 17kD Active caspase 3 […]
(§5) 48h. Cells were plated in complete growth medium. After overnight, cells were treated with different doses of 2HF, and PARP-1 incubated for 48h. Total cell lysates (40 µg/lane) were […]
(§6) buffer. Proteins were transferred to nitrocellulose C-terminal cleaved membrane, nonspecific binding was done in 1X clear milk, PARP~89kDa
(§7) +0.1%T20 (Invitrogen) for 1h at room temperature. All primary antibodies were from (mouse monoclonal, 1.0 0.8 0.9 1.0 0.9 ND 1.0 1.1 ND Santacruze Biotechnology (1:1000), in 1X clear milk
(§8) +0.1%T20 overnight in 40C. Secondary antibody from N-terminal cleaved
(§9) Santacruze Biotech (1:2000) for 1h at room temperature in PARP~24kDa […]
(§10) Supplemental Figure 7 Supplemental data for Fig. 5.
(§11) B16F0 SK-Mel- 24 B16F10Numbers below of each blot represent protein band intensity ratios to adequate
(§12) TNF-α Full blots are presented in next 4 figures. […]
(§13) cells after treatment with 50, 100 µM 2HF for 48h.
(§14) Raf-1 Raf-1 Cells were plated in complete growth medium. After overnight, cells were treated with different doses of 2HF, […]
(§15) loaded on 4- 12% bis-tris gel, with 1X MES gel running p-MEK-1 p-MEK-1 buffer. Proteins were transferred to nitrocellulose membrane, nonspecific binding was done in 1X clear
(§16) All primary antibodies were from (mouse monoclonal, MEKK15 MEKK15 except TNF-α (American Hamster), Santacruze
(§17) 1.0 0.9 0.1 ND ND ND overnight in 40C. Secondary antibody from Santacruze Biotech (1:2000) for 1h at room temperature in 1X clear […]

[2] = system: B16-F10 cells; assay: Western blot densitometry of whole-cell lysates, B16-F10; assay type: cell-based, mouse; conditions: 48 h
Protocol: as §1, with “B16-F0, F16-F10, and SK-MEL-24 cells were treated for 24 h with vehicle, 50 µM, and 100 µM 2HF.” left out, “Total cell lysates (25 µg/lane) were loaded on 4–12% bis-tris gels, with MES gel running buffer.” left out
as §2, §3, §4, §5, §6, §7, §8, §9, §10, §11, §12, §13, §14, §15, §16, §17

[3] = Single dose pharmacokinetic study of 2HF; assay type: in vivo, Sprague Dawley male rats; conditions: male SD rats
Protocol: Figure 7 Plasma concentration vs. time profile of 2HF in rats. Mean plasma concentration vs. time profile of 2HF following intravenous and oral administration of 2HF at 5 mg/kg and 10 mg/kg, respectively, to male SD rats (n = 3).
Pharmacokinetic studies of 2HF were performed by GVK Biosciences Pvt. Ltd., Hyderabad, India in Sprague Dawley male rats (~280 g). Rats were dosed either orally through gastric gavage needle of 10 mg/kg 2HF (0.5% Methyl cellulose + 0.5% Tween80) or intravenous 5 mg/kg 2HF (in 10% DMSO). Then, 200–300 µL blood was collected at each time point and plasma was separated; 50 µL plasma sample was deproteinized with 200 µL of acetonitrile followed by centrifugation at 2000× g for 5 min and supernatant was analyzed for 2HF by LC-MS/MS. Pharmacokinetic parameters were calculated for individual animals by a non-compartmental model with Phoenix software version 8.1 (CERTARA, Princeton, NJ, USA).

Compound: O=C1CC(c2ccccc2O)Oc2ccccc21 (stereo not drawn) [2HF, 2′-hydroxyflavanone]
- Active caspase 3 band intensity ratio to control (normalized against β-Actin) ([1]; B16F0, 50 µM 2HF): 0.9
- C-terminal cleaved PARP~89kDa band intensity ratio to control (normalized against β-Actin) ([1]; B16F0, 50 µM 2HF): 0.9
- MEKK15 band intensity ratio to control (normalized against β-Actin) ([1]; B16F0, 50 µM 2HF): 1.0
- N-terminal cleaved PARP~24kDa band intensity ratio to control (normalized against β-Actin) ([1]; B16F0, 50 µM 2HF): 0.9
- PARP-1 band intensity ratio to control (normalized against β-Actin) ([1]; B16F0, 50 µM 2HF): 0.9
- PKC α band intensity ratio to control (normalized against β-Actin) ([1]; B16F0, 50 µM 2HF): 0.6
- Procaspase 3 band intensity ratio to control (normalized against β-Actin) ([1]; B16F0, 50 µM 2HF): 1.0
- RAL BP-1 band intensity ratio to control (normalized against β-Actin) ([1]; B16F0, 50 µM 2HF): 0.9
- Raf-1 band intensity ratio to control (normalized against β-Actin) ([1]; B16F0, 50 µM 2HF): 0.2
- TNF-α band intensity ratio to control (normalized against β-Actin) ([1]; B16F0, 50 µM 2HF): 0.4
- p-MEK-1 band intensity ratio to control (normalized against β-Actin) ([1]; B16F0, 50 µM 2HF): 0.8
- p-PDGFR-β band intensity ratio to control (normalized against β-Actin) ([1]; B16F0, 50 µM 2HF): 0.3
- Active caspase 3 band intensity ratio to control (normalized against β-Actin) ([1]; B16F0, 100 µM 2HF): 0.1
- MEKK15 band intensity ratio to control (normalized against β-Actin) ([1]; B16F0, 100 µM 2HF): 4.7
- N-terminal cleaved PARP~24kDa band intensity ratio to control (normalized against β-Actin) ([1]; B16F0, 100 µM 2HF): 0.1
- PARP-1 band intensity ratio to control (normalized against β-Actin) ([1]; B16F0, 100 µM 2HF): 0.8
- PKC α band intensity ratio to control (normalized against β-Actin) ([1]; B16F0, 100 µM 2HF): 0.2
- Procaspase 3 band intensity ratio to control (normalized against β-Actin) ([1]; B16F0, 100 µM 2HF): 0.5
- RAL BP-1 band intensity ratio to control (normalized against β-Actin) ([1]; B16F0, 100 µM 2HF): 0.3
- p-MEK-1 band intensity ratio to control (normalized against β-Actin) ([1]; B16F0, 100 µM 2HF): 0.8
- Active caspase 3 band intensity ratio to control (normalized against β-Actin) ([2]; B16F10, 50 µM 2HF): 1.0
- C-terminal cleaved PARP~89kDa band intensity ratio to control (normalized against β-Actin) ([2]; B16F10, 50 µM 2HF): 1.1
- N-terminal cleaved PARP~24kDa band intensity ratio to control (normalized against β-Actin) ([2]; B16F10, 50 µM 2HF): 1.1
- PARP-1 band intensity ratio to control (normalized against β-Actin) ([2]; B16F10, 50 µM 2HF): 1.0
- Procaspase 3 band intensity ratio to control (normalized against β-Actin) ([2]; B16F10, 50 µM 2HF): 0.9
- RAL BP-1 band intensity ratio to control (normalized against β-Actin) ([2]; B16F10, 50 µM 2HF): 0.5
- Raf-1 band intensity ratio to control (normalized against β-Actin) ([2]; B16F10, 50 µM 2HF): 0.5
- PKC α band intensity ratio to control (normalized against β-Actin) ([2]; B16F10, 100 µM 2HF): 0.2
- Procaspase 3 band intensity ratio to control (normalized against β-Actin) ([2]; B16F10, 100 µM 2HF): 0.1
- TNF-α band intensity ratio to control (normalized against β-Actin) ([2]; B16F10, 100 µM 2HF): 0.3
- oral bioavailability ([3]; 10 mg/kg oral vs 5 mg/kg IV): Poor
- plasma concentrations orally compared with IV ([3]; 10 mg/kg oral vs 5 mg/kg IV): two log-order lower
- clearance ([3]; after either oral or IV administration): rapid clearance

Source: PMC6826616, “Topical 2′-Hydroxyflavanone for Cutaneous Melanoma” (Cancers, 2019)
